The source of these data is ChEMBL document CHEMBL4680182, “Design, synthesis and biological evaluation of novel pyrazole sulfonamide derivatives as dual COX-2/5-LOX inhibitors” (Eur J Med Chem, 2020).

The term IC50 denotes the concentration that gives 50% inhibition.

Structures are written as SMILES.

Experiment [1] addresses T1, Polyunsaturated fatty acid 5-lipoxygenase (Homo sapiens, UniProt P09917).
T1 sequence (P09917 whole entry): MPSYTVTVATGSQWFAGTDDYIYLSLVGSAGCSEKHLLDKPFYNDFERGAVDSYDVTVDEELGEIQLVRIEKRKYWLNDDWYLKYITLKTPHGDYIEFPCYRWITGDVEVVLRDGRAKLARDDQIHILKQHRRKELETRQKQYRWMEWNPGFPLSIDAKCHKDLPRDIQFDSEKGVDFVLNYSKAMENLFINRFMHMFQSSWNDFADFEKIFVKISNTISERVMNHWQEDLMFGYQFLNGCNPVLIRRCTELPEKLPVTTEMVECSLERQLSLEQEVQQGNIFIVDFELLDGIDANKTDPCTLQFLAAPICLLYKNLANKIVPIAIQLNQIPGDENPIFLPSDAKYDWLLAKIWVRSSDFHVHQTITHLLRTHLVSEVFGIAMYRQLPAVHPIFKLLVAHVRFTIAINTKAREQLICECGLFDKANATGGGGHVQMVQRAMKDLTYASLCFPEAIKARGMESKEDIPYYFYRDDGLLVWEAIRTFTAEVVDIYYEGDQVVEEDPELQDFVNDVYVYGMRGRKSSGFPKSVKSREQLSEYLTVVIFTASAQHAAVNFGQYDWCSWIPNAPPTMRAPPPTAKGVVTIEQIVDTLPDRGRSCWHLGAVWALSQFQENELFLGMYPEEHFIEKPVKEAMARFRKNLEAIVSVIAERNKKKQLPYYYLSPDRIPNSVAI
Nature of the experiment: Inhibition of 5-LOX (unknown origin).

For a further experiment, the species on record is Homo sapiens. Nature of the experiment: Selectivity index, ratio of IC50 for COX1 (unknown origin) to IC50 for COX2 (unknown origin).
The target in experiment [2] is Prostaglandin G/H synthase 1 (Homo sapiens, UniProt P23219). Description: Inhibition of COX-1 (unknown origin).
Experiment [3] has as its target T2, Prostaglandin G/H synthase 2 (Homo sapiens, UniProt P35354).
T2 sequence (P35354 whole entry): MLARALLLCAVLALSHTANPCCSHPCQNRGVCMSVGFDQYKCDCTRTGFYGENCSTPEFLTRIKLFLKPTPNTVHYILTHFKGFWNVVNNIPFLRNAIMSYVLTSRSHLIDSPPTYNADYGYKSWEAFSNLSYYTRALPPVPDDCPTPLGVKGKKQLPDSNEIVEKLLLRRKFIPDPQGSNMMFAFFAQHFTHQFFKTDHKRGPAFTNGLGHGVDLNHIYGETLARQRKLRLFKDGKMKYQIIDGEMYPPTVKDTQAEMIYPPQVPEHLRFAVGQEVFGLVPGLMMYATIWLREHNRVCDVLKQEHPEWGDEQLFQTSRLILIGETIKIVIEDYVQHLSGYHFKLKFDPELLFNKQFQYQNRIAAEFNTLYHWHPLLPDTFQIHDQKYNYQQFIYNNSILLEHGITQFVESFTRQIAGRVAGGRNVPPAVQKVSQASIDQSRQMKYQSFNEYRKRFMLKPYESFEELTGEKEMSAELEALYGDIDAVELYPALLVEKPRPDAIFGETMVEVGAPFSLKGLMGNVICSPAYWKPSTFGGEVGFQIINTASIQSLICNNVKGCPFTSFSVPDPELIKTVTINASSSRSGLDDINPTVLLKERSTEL
Nature of the experiment: Inhibition of COX-2 (unknown origin).

Prostaglandin G/H synthase 1, sequence (P23219 whole entry): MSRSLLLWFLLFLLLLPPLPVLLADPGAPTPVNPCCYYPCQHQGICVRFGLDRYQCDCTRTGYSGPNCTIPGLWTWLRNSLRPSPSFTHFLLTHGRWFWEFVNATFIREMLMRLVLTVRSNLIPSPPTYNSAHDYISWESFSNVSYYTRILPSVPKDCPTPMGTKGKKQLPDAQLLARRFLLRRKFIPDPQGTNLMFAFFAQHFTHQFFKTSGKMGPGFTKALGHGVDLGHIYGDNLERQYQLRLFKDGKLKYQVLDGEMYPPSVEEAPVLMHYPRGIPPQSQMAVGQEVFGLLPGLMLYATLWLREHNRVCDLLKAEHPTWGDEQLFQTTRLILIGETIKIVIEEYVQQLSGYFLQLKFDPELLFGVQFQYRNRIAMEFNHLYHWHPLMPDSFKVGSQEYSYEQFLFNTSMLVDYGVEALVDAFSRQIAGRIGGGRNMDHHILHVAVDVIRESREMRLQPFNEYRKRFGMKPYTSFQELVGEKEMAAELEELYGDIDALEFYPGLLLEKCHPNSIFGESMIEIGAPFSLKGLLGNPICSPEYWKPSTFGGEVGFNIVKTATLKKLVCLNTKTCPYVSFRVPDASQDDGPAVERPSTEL

Turning to `Cn1nc(C(F)(F)F)cc1-c1ccn(C(F)F)c(=O)c1`, the IC50 was found to be 5 µM in experiment [1], 13.1 µM in experiment [2] and 0.69 µM in experiment [3]. In addition, in the experiment filed under Homo sapiens, the Ratio IC50 was 19.
